Assay results as given in patent US20100069494A1, “LOWERING OF PROTEINS ASSOCIATED WITH ALZHEIMER'S DISEASE BY INTERRUPTING GENE TRANSCRIPTION WITH A SMALL MOLECULE” (BOARD OF GOVERNORS FOR HIGHER EDUCATION, STATE OF RHODE …, priority 2007, published 2010).

Experiments:
SP1 = biological target: T1, SP1 (Mus musculus, UniProt O89090); experiment: Oral tolfenamic acid in mice, Western blot of SP1 in brain; format: in vivo, mice (C57BL/6); conditions: oral gavage 10 or 50 mg/Kg in corn oil on alternate days, Western blot (FIG. 6A)
T1 construct: various brain regions were isolated and stored at −70° C; from tissue; host or cells: brain of adult C57BL/6 mice
T1 sequence (O89090 whole entry): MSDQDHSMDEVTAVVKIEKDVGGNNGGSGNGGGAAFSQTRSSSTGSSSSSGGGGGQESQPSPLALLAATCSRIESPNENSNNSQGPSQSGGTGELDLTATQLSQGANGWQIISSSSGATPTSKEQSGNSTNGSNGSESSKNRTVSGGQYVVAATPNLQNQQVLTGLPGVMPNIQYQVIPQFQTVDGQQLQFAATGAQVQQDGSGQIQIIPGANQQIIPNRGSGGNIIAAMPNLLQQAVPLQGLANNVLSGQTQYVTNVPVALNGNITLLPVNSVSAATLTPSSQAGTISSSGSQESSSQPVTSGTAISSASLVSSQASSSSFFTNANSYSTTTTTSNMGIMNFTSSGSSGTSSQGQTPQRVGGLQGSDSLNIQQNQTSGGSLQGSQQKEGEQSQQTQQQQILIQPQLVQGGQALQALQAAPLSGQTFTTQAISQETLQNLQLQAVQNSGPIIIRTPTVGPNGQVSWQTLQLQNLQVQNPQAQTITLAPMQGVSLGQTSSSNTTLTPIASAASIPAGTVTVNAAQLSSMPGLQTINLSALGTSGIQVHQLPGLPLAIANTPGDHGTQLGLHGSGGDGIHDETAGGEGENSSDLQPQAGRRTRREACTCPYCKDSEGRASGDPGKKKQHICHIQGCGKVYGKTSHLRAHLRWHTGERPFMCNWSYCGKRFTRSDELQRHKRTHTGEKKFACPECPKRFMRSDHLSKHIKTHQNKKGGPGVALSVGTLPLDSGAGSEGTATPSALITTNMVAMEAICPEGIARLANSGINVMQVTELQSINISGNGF
Protocol: (§1) The Oral Administration of Tolfenamic acid to mice lowers SP1, APP, and Aβ levels in the brain (See FIG. 6). Mice were dosed on alternate days by oral gavage with 10 or 50 mg/Kg of tolfenamic acid in corn oil or vehicle alone. Tolfenamic acid (TFA) lowered APP levels by about 50% and Aβ by about 20%. […] FIG. 6A is a representative Western blot of SP1. FIG. 6B is a Western blot analysis of APP expressed as a ratio of a housekeeping gene, FIG. 6C is Aβ analysis by ELISA. Each bar represents the mean of data obtained from 6-9 animals. Data from both doses was combined after statistical analysis. Values marked with an ‘*’ are statistically significant, p<0.0.5.
Animal Exposure: Adult mice (C57BL/6) were obtained from Jackson labs (Maine). They were divided into 2 groups viz., Con (C), drug treated (D). The drug, toelfenamic acid was dissolved in corn oil and administered at various concentrations from 10 mg/Kg to 100 mg/Kg in corn oil by oral gavage. Control mice were dosed with corn oil only. Treatment was given on alternate days for one month. At the end of the exposure period the animals were decapitated following exposure to CO2 and hypothermia and various brain regions were isolated and stored at −70° C. This protocol has been approved by the IACUC of the University of Rhode Island. […]

APP = experiment: Oral tolfenamic acid in mice, Western blot analysis of APP in brain; format: in vivo, mice (C57BL/6); conditions: oral gavage 10 or 50 mg/Kg in corn oil on alternate days, ratio to housekeeping gene, both doses combined (FIG. 6B)
Protocol: as §1, with “p<0.0.5. Animal Exposure: Adult mice (C57BL/6) were obtained from Jackson labs (Maine). They were divided into 2 groups viz., Con (C), drug treated (D). The drug, toelfenamic acid was dissolved in corn oil and administered at various concentrations from 10 mg/Kg to 100 mg/Kg in corn oil by oral gavage. Control mice were dosed with corn oil only. Treatment was given on alternate days for one month. At the end of the exposure period the animals were decapitated following exposure to CO2 and hypothermia and various brain regions were isolated and stored at −70° C. This protocol has been approved by the IACUC of the University of Rhode Island. […]” for “p<0.0.5.”

Aβ = experiment: Oral tolfenamic acid in mice, Aβ analysis by ELISA in brain; format: in vivo, mice (C57BL/6); conditions: oral gavage 10 or 50 mg/Kg in corn oil on alternate days, both doses combined (FIG. 6C)
Protocol: The Oral Administration of Tolfenamic acid to mice lowers SP1, APP, and Aβ levels in the brain (See FIG. 6). Mice were dosed on alternate days by oral gavage with 10 or 50 mg/Kg of tolfenamic acid in corn oil or vehicle alone. Tolfenamic acid (TFA) lowered APP levels by about 50% and Aβ by about 20%. […] FIG. 6A is a representative Western blot of SP1. FIG. 6B is a Western blot analysis of APP expressed as a ratio of a housekeeping gene, FIG. 6C is Aβ analysis by ELISA. Each bar represents the mean of data obtained from 6-9 animals. Data from both doses was combined after statistical analysis. Values marked with an ‘*’ are statistically significant, p<0.0.5. Animal Exposure: Adult mice (C57BL/6) were obtained from Jackson labs (Maine). They were divided into 2 groups viz., Con (C), drug treated (D). The drug, toelfenamic acid was dissolved in corn oil and administered at various concentrations from 10 mg/Kg to 100 mg/Kg in corn oil by oral gavage. Control mice were dosed with corn oil only. Treatment was given on alternate days for one month. […] ELISA Assays: Aβ-40 and Aβ-42 levels were measured using a combination of monoclonal antibody (mAb) 6E10 (specific to an epitope present on 1-16 amino acid residues of Aβ) and R162, and R164 respectively in a double-antibody sandwich ELISA (Mehta et al., 1998; Morishima-Kawashima et al., 2000; Basha et al., 2005).

Sp1, Sp3 and Sp4 = conditions: pancreatic cancer cells and tumors; background statement; cited from earlier work

SP1 levels in the brain (SP1): lowers
SMILES: Cc1c(Cl)cccc1Nc1ccccc1C(=O)O [Tolfenamic acid]
lowering of APP levels (APP): about 50% | lowering of Aβ levels (Aβ): about 20% | degradation of Sp1, Sp3 and Sp4 (Sp1, Sp3 and Sp4): can induce proteasome-dependent degradation of Sp1, Sp3 and Sp4
